# Assay results taken from patent publication US20040091517A1, “Use of polyphospate as a tooth erosion inhibitors in acidic compositions” (priority 2000, published 2004).
# “And” between values parts separate entries of the source, which are not always exact repeats. Equal values may be shown once.
# Assay: in-vitro planometry/profilometry test of enamel erosion by acidic solutions and beverages
# Design: species or system human
# Protocol: Test solutions were prepared by dissolving the ingredients in water as described in the Table. For test solutions containing sodium polyphosphate, the average chain length (n) of the polyphosphate polymer used was 17. All solutions were prepared to give a pH of 3.0 and a titratable acidity of 0.5% w/v CAMH (citric acid monohydrate). Where calcium was added, the molar ratio of calcium: citric acid used was about 0.08. The erosive effect of the solutions was evaluated using in-vitro planometry tests in which flat dental enamel sections were exposed to test solutions at a temperature of 37° C. for 4 hours. […] Erosive effect was evaluated by physical measurement of the depth of enamel (in microns) lost during the procedure.
# A. Solutions were prepared containing approximately equivalent molar concentrations of phosphate groups dissolved in 0.3% w/v citric acid monohydrate (CAMH), pH 3.4. pH was adjusted by the addition of NaOH as required. […] Additionally sodium polyphosphate n≈4, 7, 28 was from Chemische Fabrik Budenheim, Budenheim, Germany, and sodium polyphosphate n≈12, 21, 25 was from Rhodia Ltd. Widnes, Cheshire, UK. Enamel specimens were placed in the solutions with stirring at 37 C for 4 hours and the amount of enamel lost from the surface during that time measured by profilometry as described previously.
# The acidulant employed was 0.3% w/v citric acid monohydrate. Citric acid is one of the most commonly employed food acidulants. Adjustment of pH where required was achieved by the addition of NaOH.
smiles,measurement,setting,value
"O=C([O-])[O-].[Ca+2] [Ca, calcium carbonate]",4 Hr Enamel Loss,"Ca 80 ppm alone, no phosphate salt, no gum, 0.5% w/v CAMH, pH 3.0",41.1 microns and 80 microns
same,4 Hr Enamel Loss,"Ca 80 ppm alone, no phosphate salt, 0.3% w/v CAMH, pH 3.4",42.8 microns
same,4 Hr Enamel Loss,"Ca 100 ppm alone, no polyphosphate, 0.3% w/v CAMH, pH 3.2",31.5 microns
same,4 Hr Enamel Loss,"Ca 200 ppm alone, no polyphosphate, 0.3% w/v CAMH, pH 3.2",25.2 microns
O=P([O-])([O-])OP(=O)([O-])OP(=O)([O-])[O-].[Na+].[Na+].[Na+].[Na+].[Na+] [Penta-sodium triphosphate],4 Hr Enamel Loss,"phosphate salt 0.61 g/L, Ca 80 ppm, 0.5% w/v CAMH, pH 3.0, listed as Penta sodium triphosphate, triphosphate",20.09 microns
same,4 Hr Enamel Loss,"phosphate salt 0.61 g/L, Ca 80 ppm, 0.5% w/v CAMH, pH 3.0, listed as sodium tri-phosphate, triphosphate",about 20 microns
same,4 Hr Enamel Loss,"phosphate salt 0.61 g/L, Ca 80 ppm, 0.5% w/v CAMH, pH 3.0, triphosphate",20.1 microns
same,4 Hr Enamel Loss,"phosphate salt 0.61 g/L, no Ca, 0.3% w/v CAMH, pH 3.4",29.6 microns
O=P(O)(O)O [Sodium phosphate],4 Hr Enamel Loss,"phosphate salt 0.65 g/L, Ca 80 ppm, 0.5% w/v CAMH, pH 3.0",33.4 microns and 33.39 microns
same,4 Hr Enamel Loss,"phosphate salt 0.65 g/L, Ca 80 ppm, 0.5% w/v CAMH, pH 3.0, listed as sodium phosphate",about 33 microns
same,4 Hr Enamel Loss,"phosphate salt 0.65 g/L, no Ca, 0.3% w/v CAMH, pH 3.4",34.05 microns
O=P([O-])([O-])OP(=O)([O-])[O-].[Na+].[Na+].[Na+].[Na+] [Tetra-sodium pyrophosphate],4 Hr Enamel Loss,"phosphate salt 1.08 g/L, Ca 80 ppm, 0.5% w/v CAMH, pH 3.0",28.6 microns
same,4 Hr Enamel Loss,"phosphate salt 1.08 g/L, Ca 80 ppm, 0.5% w/v CAMH, pH 3.0, listed as Tetra sodium pyrophosphate",28.63 microns
same,4 Hr Enamel Loss,"phosphate salt 1.08 g/L, Ca 80 ppm, 0.5% w/v CAMH, pH 3.0, listed as sodium pyrophosphate",about 29 microns
same,4 Hr Enamel Loss,"phosphate salt 1.08 g/L, no Ca, 0.3% w/v CAMH, pH 3.4",34.9 microns
